{"source": "paper PMC9027599", "about": "“Secondary Metabolites in Basil, Bio-Insecticide, Inhibition Effect, and In Silico Molecular Docking against Proteolytic Enzymes of the Red Palm Weevil (Rhynchophorus ferrugineus)” (Plants, 2022)", "key": {"[1]": {"test_system": "proteases from the fourth larval instars of R. ferrugineus's midgut", "assay": "Specific protease inhibitors on midgut proteases (in vitro, Figure S2)", "assay_type": "biochemical, Rhynchophorus ferrugineus", "details": "purified proteases of fourth larval instar midgut", "procedure": "The activity of cysteine proteinase was determined in the fourth midgut instar larval homogenate of R. ferrugineus using the substrate Z-Phe-Arg-MNA [1]. Ten larvae were carefully removed, dissected, and rinsed repeatedly with NaCl solution (0.9% (w/v). The midgut instar was homogenized in protease assay buffer (500 µL) [5 mM DTT, 50 mM HEPS (N-2-Hydroxyethyl piperazin-N’-2-ethanesulfonic acid), pH 8.0, and 0.1 percent Triton X-100]. The reaction mixture was centrifuged for 30 min at 5000 rpm (Sigma 3k30 cooling centrifuge). The supernatant was utilized to determine the overall activity of proteolytic enzymes and the protein content. The supernatant (10 µL) was incubated for 30 min at 37 °C, and the volume was adjusted to 60 µL using assay buffer (pH 8) before adding 100 µL of substrate (0.5 mM). Prior to adding the substrate, 10 µL enzyme samples were pre-incubated with iodoacetic acid for 10 min. After 60 min at 37 °C of mixture incubation, the reaction was halted with the addition of 1.5 mL mersalyl (5 mM), 0.02 mg/mL fast garnet reactive solution, and 2% Tween 20. The reaction was centrifuged (at 5000 rpm, 6 min), then the absorbance was determined (at 520 nm). The activity of cysteine proteinase was measured using an ELISA quick plate reader at the OD520/60 min/mg of midgut protein. As a blank, a test mixture devoid of enzyme was used. […] The fourth homogenates of midgut larval were produced as reported before in the experiment for determining enzyme activity. […]\nTo learn more about the proteases found in homogenate preparations of R. ferrugineus fourth midgut larval instars, inhibitors from many different types of mechanisms were used. […] The absorbance of the enzymes was determined using an ELISA plate quick reader at various wavelengths. The percentage activity of the control enzyme for each inhibitor was evaluated for each enzyme. Protease activity was assayed in vivo in the R. ferrugineus fourth midgut larval instars, which were treated with 1, 10, 50, 100, 500, 1000, and 5000 mg/L of extracts or compounds, measured as described above. […]"}, "cysteine protease [2]": {"test_system": "cysteine protease", "assay": "Cysteine protease activity of midgut from larvae treated 24 h (in vivo)", "set-up": "species or system Rhynchophorus ferrugineus", "details": "midgut of fourth instar larvae treated for 24 h", "procedure": "The activity of cysteine proteinase was determined in the fourth midgut instar larval homogenate of R. ferrugineus using the substrate Z-Phe-Arg-MNA [1]. […] The reaction was centrifuged (at 5000 rpm, 6 min), then the absorbance was determined (at 520 nm). The activity of cysteine proteinase was measured using an ELISA quick plate reader at the OD520/60 min/mg of midgut protein. […]\nAs a control, an assay combination devoid of inhibitors was utilized. The absorbance of the enzymes was determined using an ELISA plate quick reader at various wavelengths. The percentage activity of the control enzyme for each inhibitor was evaluated for each enzyme. Protease activity was assayed in vivo in the R. ferrugineus fourth midgut larval instars, which were treated with 1, 10, 50, 100, 500, 1000, and 5000 mg/L of extracts or compounds, measured as described above. […]"}, "total proteases [3]": {"test_system": "total proteases", "assay": "Total proteolytic activity of fourth instar midgut homogenate, azocasein (in vitro)", "assay_type": "biochemical, Rhynchophorus ferrugineus", "details": "fourth instar larvae midgut homogenate", "procedure": "(§1) The Lowry technique was used to determine the protein concentrations. Total proteolytic activity was determined in the fourth midgut instar larval (lab strain) homogenate of R. ferrugineus with azocasein in accordance with […] et al. […] [70]. […] Using a Sigma 3k30 cooling centrifuge, reserve homogenates prepared in a previous stage were spun at 5000 rpm for 30 min. Estimates of protein content and total proteolytic enzyme activity were made using the supernatants. The supernatant (10 μL) was incubated at 37 °C for 20 min, and the volume was adjusted to 60 μL using an assay buffer (pH 8), before adding azocasien (200 μL, 2% (w/v)). […] Following that, to activate the reaction, the substrate was introduced 20 min for Leupeptin, so the reaction was halted after 180 min at 37 °C with 300 μL of cool tri-chloroacetic acid (TCA) (10% (v/v). The mixture was centrifuged for 20 min at 5000 rpm (Sigma 3k30 cooling centrifuge). […] To learn more about the proteases found in homogenate preparations of R. ferrugineus fourth midgut larval instars, inhibitors from many different types of mechanisms were used. […] As a control, an assay combination devoid of inhibitors was utilized. The absorbance of the enzymes was determined using an ELISA plate quick reader at various wavelengths. The percentage activity of the control enzyme for each inhibitor was evaluated for each enzyme. […] Larvae were exposed for 24 h to leaf discs treated with extract and compounds."}, "cysteine protease [4]": {"target": "cysteine protease", "assay": "Cysteine proteinase activity, Z-Phe-Arg-MNA (in vitro)", "assay_type": "biochemical, Rhynchophorus ferrugineus", "details": "fourth instar larvae midgut homogenate", "procedure": "The activity of cysteine proteinase was determined in the fourth midgut instar larval homogenate of R. ferrugineus using the substrate Z-Phe-Arg-MNA [1]. Ten larvae were carefully removed, dissected, and rinsed repeatedly with NaCl solution (0.9% (w/v). The midgut instar was homogenized in protease assay buffer (500 µL) [5 mM DTT, 50 mM HEPS (N-2-Hydroxyethyl piperazin-N’-2-ethanesulfonic acid), pH 8.0, and 0.1 percent Triton X-100]. The reaction mixture was centrifuged for 30 min at 5000 rpm (Sigma 3k30 cooling centrifuge). The supernatant was utilized to determine the overall activity of proteolytic enzymes and the protein content. The supernatant (10 µL) was incubated for 30 min at 37 °C, and the volume was adjusted to 60 µL using assay buffer (pH 8) before adding 100 µL of substrate (0.5 mM). Prior to adding the substrate, 10 µL enzyme samples were pre-incubated with iodoacetic acid for 10 min. After 60 min at 37 °C of mixture incubation, the reaction was halted with the addition of 1.5 mL mersalyl (5 mM), 0.02 mg/mL fast garnet reactive solution, and 2% Tween 20. The reaction was centrifuged (at 5000 rpm, 6 min), then the absorbance was determined (at 520 nm). The activity of cysteine proteinase was measured using an ELISA quick plate reader at the OD520/60 min/mg of midgut protein. As a blank, a test mixture devoid of enzyme was used. […] The fourth homogenates of midgut larval were produced as reported before in the experiment for determining enzyme activity. As previously disclosed, the inhibitory experiment was performed using a microplate assay. A series of inhibitor concentrations was created to determine the inhibitor’s maximal inhibitory effect. Leupeptin concentrations of 0.01, 0.05, 0.1, and 1.0 mM, PMSF concentrations of 0.1, 1.0, 10, and 50 mM, TLCK and TPCK concentrations of 0.01, 0.05, 0.1, 1, 50, and 100 mM, EDTA concentrations of 0.1, 1, 10, 50, and 100 mM, and iodoacetic acid concentrations of 0.01, 0.05, 0.1, and 1 mM.\nAs a control, an assay combination devoid of inhibitors was utilized. The absorbance of the enzymes was determined using an ELISA plate quick reader at various wavelengths. The percentage activity of the control enzyme for each inhibitor was evaluated for each enzyme. Protease activity was assayed in vivo in the R. ferrugineus fourth midgut larval instars, which were treated with 1, 10, 50, 100, 500, 1000, and 5000 mg/L of extracts or compounds, measured as described above. Larvae were exposed for 24 h to leaf discs treated with extract and compounds."}, "[5]": {"test_system": "trypsin-like serine proteinase", "assay": "Trypsin-like activity of midgut from larvae treated 24 h (in vivo)", "set-up": "species or system Rhynchophorus ferrugineus", "details": "midgut of fourth instar larvae treated for 24 h", "procedure": "(§2) The midguts were homogenized in the assay buffer (100 mM Tris-HCl, pH 8.1) and centrifuged for 30 min at 8000 rpm (Sigma 3K 30, rotors No. 12158). […] […] (100 mg/mL in DMF), BAρNA (100 mg/mL in DMSO), and […] (100 mg/mL in DMF) stock substrates were diluted in the assay buffer to 1 mg/mL, and substrate volume was 50 μL. […] The activity was quantified using an ELISA plate reader at a wavelength of 405 nm. As an empty well, an assay combination containing a denaturation enzyme was utilized instead of an active enzyme. […] To learn more about the proteases found in homogenate preparations of R. ferrugineus fourth midgut larval instars, inhibitors from many different types of mechanisms were used. […] As a control, an assay combination devoid of inhibitors was utilized. The absorbance of the enzymes was determined using an ELISA plate quick reader at various wavelengths. The percentage activity of the control enzyme for each inhibitor was evaluated for each enzyme. […] Larvae were exposed for 24 h to leaf discs treated with extract and compounds."}, "total proteases [6]": {"test_system": "total proteases", "assay": "Total protease activity of midgut from larvae treated 24 h (in vivo)", "set-up": "species or system Rhynchophorus ferrugineus", "details": "midgut of fourth instar larvae treated for 24 h", "procedure": "as §1"}, "metalloprotease [7]": {"test_system": "metalloprotease", "assay": "Metalloprotease activity of midgut from larvae treated 24 h (in vivo)", "set-up": "species or system Rhynchophorus ferrugineus", "details": "midgut of fourth instar larvae treated for 24 h", "procedure": "(§3) A substrate azocasein assessed the metalloproteinases activity in the fourth midgut instar larval homogenate. Ten larvae were carefully removed, dissected, and rinsed repeatedly with NaCl solution (0.9% (w/v). […] After homogenization, the homogenates were centrifuged at 5000 rpm (for 30 min) using a Sigma centrifuge 3k30, and the supernatant was utilized to determine enzyme activity and protein content. The supernatant per experiment (10 µL) was incubated for 20 min at 37 °C, and the volume was adjusted to 60 µL using assay buffer pH 8 before adding azocasein (200 µL, 2% (w/v)). In all instances, 10 µL enzyme samples were incubated for 10 min (except EDTA with 20 min), and EDTA was used as a blocker of metalloproteinase activity before being added to the specific substrate. The reaction was interrupted with 300 µL of trichloroacetic acid (TCA cold, 10% (v/v) and continued at 37 °C for 180 min. The reaction mixture was then centrifuged at 5000 rpm for 20 min (Sigma centrifuge 3k30), sodium hydroxide (10 µL of 10 N) was incorporated into the supernatant, then absorbance was determined using an ELISA plate reader at 450 nm. As a blank, an assay mixture devoid of the enzyme was devoted, the specific activity was determined using the OD450 mg^−1 protein min^−1 value, and a blank solution sample devoid of enzyme solution was determined. To learn more about the proteases found in homogenate preparations of R. ferrugineus fourth midgut larval instars, inhibitors from many different types of mechanisms were used. […] As a control, an assay combination devoid of inhibitors was utilized. The absorbance of the enzymes was determined using an ELISA plate quick reader at various wavelengths. The percentage activity of the control enzyme for each inhibitor was evaluated for each enzyme. […] Larvae were exposed for 24 h to leaf discs treated with extract and compounds."}, "metalloprotease [8]": {"target": "metalloprotease", "assay": "Metalloproteinase activity, azocasein (in vitro)", "assay_type": "biochemical, Rhynchophorus ferrugineus", "details": "fourth instar larvae midgut homogenate", "procedure": "as §3"}, "[9]": {"target": "trypsin-like serine proteinase", "assay": "Serine proteinase microplate assay, BApNA (in vitro)", "assay_type": "biochemical, Rhynchophorus ferrugineus", "details": "fourth instar larvae midgut homogenate", "procedure": "as §2, with “The specific activities of serine proteinase were determined using a rapid quick microplate assay with substrates in reaction mixtures (150 μL) including a serine protease assay buffer, according to […] et al. and Olga et al. with modifications. The midguts” for “The midguts”"}}}
{"smiles": "O=C(O)CI", "note": "[iodoacetic acid]", "values": [{"measurement": "effect of specific inhibitor on midgut proteases", "setting": "[1]", "value": "dramatically suppressed"}]}
{"smiles": "Cc1ccc(S(=O)(=O)N[C@@H](Cc2ccccc2)C(=O)CCl)cc1", "note": "[TPCK]", "values": [{"measurement": "effect of specific inhibitor on midgut proteases", "setting": "[1]", "value": "dramatically suppressed"}]}
{"smiles": "Cc1ccc(S(=O)(=O)N[C@@H](CCCCN)C(=O)CCl)cc1", "note": "[TLCK]", "values": [{"measurement": "effect of specific inhibitor on midgut proteases", "setting": "[1]", "value": "dramatically suppressed"}]}
{"smiles": "C[C@H]1[C@H](C)CC[C@]2(C(=O)O)CC[C@]3(C)C(=CC[C@@H]4[C@@]5(C)CC[C@H](O)C(C)(C)[C@@H]5CC[C@]43C)[C@H]12", "note": "[Ursolic acid]", "values": [{"measurement": "IC50 against cysteine protease (in vivo)", "setting": "cysteine protease [2]", "value": 685.2, "unit": "µg/mL"}, {"measurement": "IC50 against total proteases (in vitro)", "setting": "total proteases [3]", "value": 67.2, "unit": "µg/mL"}, {"measurement": "IC50 against cysteine protease (in vitro)", "setting": "cysteine protease [4]", "value": 58.2, "unit": "µg/mL"}, {"measurement": "IC50 against trypsin-like serine proteinase (in vivo)", "setting": "[5]", "value": 235.1, "unit": "µg/mL"}, {"measurement": "IC50 against total proteases (in vivo)", "setting": "total proteases [6]", "value": 279.5, "unit": "µg/mL"}, {"measurement": "IC50 against metalloprotease (in vivo)", "setting": "metalloprotease [7]", "value": 548.3, "unit": "µg/mL"}, {"measurement": "IC50 against metalloprotease (in vitro)", "setting": "metalloprotease [8]", "value": 119.4, "unit": "µg/mL"}, {"measurement": "IC50 against trypsin-like serine proteinase (in vitro)", "setting": "[9]", "value": 57.4, "unit": "µg/mL"}]}
